Consider 3 molecules from US4336253A, “Cephalosporin antibiotics” (Eli Lilly and Company, priority 1981, dated 1982).

This data set in a line: physchem.
Setting [1] is: 66% dmf, first titratable group.
Where [2] appears, read: 66% dmf, second titratable group.

Molecules are shown by their SMILES.

As for `O=C(Cc1cccnc1)NO` [N-hydroxy 3-pyridineacetamide], the pKa (as a rule, the pH at which an ionisable group is half protonated) under setting [1] was 3.68; the pKa under setting [2] is 11.5; the pKa (water, first titratable group) amounted to 4.6; the pKa (water, second titratable group) turned out to be 9.09.
For the molecule `O=C(Cc1ccccn1)NO` [N-hydroxy-2-pyridineacetamide], the pKa runs as follows: under setting [1], approximately 3.4; under setting [2], 11.7; (water, first titratable group) 4.05; (water, second titratable group) 9.2.
Take `CN(O)C(=O)c1ccncc1` [N-hydroxy-N-methyl 4-pyridinecarboxamide]: the pKa (water, first titratable group) was 3.55 and the pKa (water, second titratable group) turned out to be 7.9.
